Measurements from BindingDB's records for doi:10.1021/jm00346a010 (1982).

Tests used:
[1] = target: Adenylate kinase (Escherichia coli) (UniProt P69441); experiment: Ability to inhibit Escherichia coli adenylate kinase II, activity expressed as Inhibition constant
[2] = target: Adenylate kinase (Escherichia coli) (UniProt P69441); experiment: Ability to inhibit Escherichia coli adenylate kinase III, activity expressed as Inhibition constant; Non competitive inhibition

Structure (SMILES) | Ki [1] | Ki [2]
CN(CCCN(C)C(=O)CCCCNc1ncnc2c1ncn2[C@@H]1O[C@H](COP(=O)(O)OP(=O)(O)OP(=O)(O)O)[C@@H](O)[C@H]1O)C(=O)CCCCNC(=O)OCc1ccccc1 | 6.8 mM | 
O=C(CI)NCCCCCNc1ncnc2c1ncn2[C@@H]1O[C@H](COP(=O)(O)OP(=O)(O)OP(=O)(O)O)[C@@H](O)[C@H]1O |  | 4.8 mM
O=C(NCCCCCNc1ncnc2c1ncn2C1O[C@H](COP(=O)(O)OP(=O)(O)OP(=O)(O)O)[C@@H](O)[C@H]1O)OCc1ccccc1 (stereo not given in full) | 4.7 mM | 
NCCCCCCNc1nc2c(N)ncnc2n1C1O[C@H](COP(=O)(O)OP(=O)(O)OP(=O)(O)O)[C@@H](O)[C@H]1O (stereo not given in full) | 7.3 mM | 
CC(=O)NCCCCCCNc1nc2c(N)ncnc2n1C1O[C@H](COP(=O)(O)OP(=O)(O)OP(=O)(O)O)[C@@H](O)[C@H]1O (stereo not given in full) | 6.7 mM | 
